{"source": "patent US12083355B1", "about": "“Preparation of photodynamic therapy tablet and method for construction and application of anti-tumor model for enhanced cancer treatment” (Sichuan Cancer Hospital, priority 2023, dated 2024)", "assay_in_all_cases": "CCK-8 cell viability assay, anti-tumor model with wireless self-powered photodynamic tablet", "type_in_all_cases": "cell-based", "settings_in_all_cases": "10 μM IKE, PDT groups: 8 μM Ce6 6 h, 20 min 660 nm light, CCK-8 after 24 hours", "key": {"[1]": {"tested_on": "human lung cancer cells H1299", "experimental": "(§1) This embodiment provides a comprehensive account of constructing an anti-tumor model utilizing the wireless self-powered photodynamic tablet (8), using human lung cancer cells A549 and H1299, as well as mouse lung cancer cells LLC. The experimental procedure involved seeding 8,000 cells per well in a 96-well plate and allowing them to adhere for 24 hours. The cells were divided into four groups: control group (Ctrl), ferroptosis inducer (IKE) group, photodynamic therapy (PDT) group, and combined treatment of IKE and PDT (IKE+PDT) group. The culture medium was then replaced accordingly: the PDT and IKE+PDT groups received 100 μL of serum-free medium containing 8 μM photosensitizer Ce6, while the Ctrl and IKE groups were replaced with serum-free medium. Following this, the cells were incubated for 6 hours under light avoidance conditions (i.e., in the substantial absence of visible light). Subsequently, the culture medium was replaced again: the IKE and IKE+PDT groups received fresh complete medium containing 10 μM IKE, while the Ctrl and PDT groups received complete medium. The PDT and IKE+PDT groups underwent 20 minutes of photodynamic therapy (e.g., with 660 nm light from the photodynamic tablet). After 24 hours of incubation, a cell viability assay was conducted using the CCK-8 reagent kit. Each experiment was repeated three times, and the data were subjected to statistical analysis."}, "[2]": {"tested_on": "human lung cancer cells A549", "experimental": "as §1"}, "[3]": {"tested_on": "mouse lung cancer cells LLC", "experimental": "as §1"}}, "data": [{"compound": "CC(C)Oc1ccc(C(=O)Cn2ccnc2)cc1-n1c(CN2CCN(C(=O)COc3ccc(Cl)cc3)CC2)nc2ccccc2c1=O", "note": "[IKE]", "values": [{"measurement": "decrease in cell viability compared to the control group", "setting": "[1]", "result": 26.0, "unit": "%"}, {"measurement": "decrease in cell viability compared to the control group", "setting": "[2]", "result": 22.4, "unit": "%"}, {"measurement": "decrease in cell viability compared to the control group", "setting": "[3]", "result": 30.3, "unit": "%"}]}]}
